Measurements from patent US20060281768A1, “THIENOPYRIMIDINE AND THIENOPYRIDINE KINASE MODULATORS” (priority 2005, published 2006).

How the values were obtained:
FLT3 571-993 = biological target: T1, FLT3 571-993 (Homo sapiens, UniProt P36888); experiment: FLT3 Fluorescence Polarization Kinase Assay; format: biochemical; conditions: 10 nM FLT3 571-993, 150 uM ATP, 30 minutes; uncertainty +10%
T1 construct: 10 nM FLT3 571-993, 20 ug/mL poly Glu4Tyr
T1 sequence (P36888 571-993): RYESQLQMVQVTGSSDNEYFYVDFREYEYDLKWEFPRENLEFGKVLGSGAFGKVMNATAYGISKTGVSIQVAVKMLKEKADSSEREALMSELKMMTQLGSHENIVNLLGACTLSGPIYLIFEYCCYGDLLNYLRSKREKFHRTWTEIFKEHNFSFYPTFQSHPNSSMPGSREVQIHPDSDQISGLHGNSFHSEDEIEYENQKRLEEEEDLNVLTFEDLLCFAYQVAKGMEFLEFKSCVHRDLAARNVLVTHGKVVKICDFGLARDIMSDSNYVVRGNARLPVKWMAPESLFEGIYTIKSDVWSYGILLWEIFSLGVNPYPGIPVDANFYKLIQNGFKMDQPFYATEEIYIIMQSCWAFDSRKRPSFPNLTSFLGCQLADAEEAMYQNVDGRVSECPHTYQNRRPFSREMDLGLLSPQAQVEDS
Procedure: The FLT3 FP assay utilizes the fluorescein-labeled phosphopeptide and the anti-phosphotyrosine antibody included in the Panvera Phospho-Tyrosine Kinase Kit (Green) supplied by Invitrogen. When FLT3 phosphorylates poly Glu4Tyr, the fluorescein-labeled phosphopeptide is displaced from the anti-phosphotyrosine antibody by the phosphorylated poly Glu4Tyr, thus decreasing the FP value. The FLT3 kinase reaction is incubated at room temperature for 30 minutes under the following conditions: 10 nM FLT3 571-993, 20 ug/mL poly Glu4Tyr, 150 uM ATP, 5mM MgCl2, 1% compound in DMSO. The kinase reaction is stopped with the addition of EDTA. The fluorescein-labeled phosphopeptide and the anti-phosphotyrosine antibody are added and incubated for 30 minutes at room temperature.
All data points are an average of triplicate samples. Inhibition and IC50 data analysis was done with GraphPad Prism using a non-linear regression fit with a multiparamater, sigmoidal dose-response (variable slope) equation.

MV4-11 cells = experiment: Growth inhibition of MV4-11 cells (CellTiterGlo); format: cell-based; conditions: Homo sapiens, 72 hours, uncertainty +20%
Procedure: FLT3 specific growth inhibition was measured in the leukemic cell line MV4-11 (ATCC Number: CRL-9591). […] MV4-11 cells cannot grow and survive without active FLT31TD.
To measure proliferation inhibition by test compounds the luciferase based CellTiterGlo reagent (Promega) was used. Cells are plated at 10,000 cells per well in 100ul of in RPMI media containing penn/strep, 10% FBS and lng/ml GM-CSF or 1 ng/ml IL-3 for MV4-11 and Baf3 cells respectively.
Compound dilutions or 0.1% DMSO (vehicle control) are added to cells and the cells are allowed to grow for 72 hours at standard cell growth conditions (37° C., 5% CO2). Total cell growth is quantified as the difference in luminescent counts (relative light units, RLU) of cell number at Day 0 compared to total cell number at Day 3 (72 hours of growth and/or compound treatment). One hundred percent inhibition of growth is defined as an RLU equivalent to the Day 0 reading. Zero percent inhibition is defined as the RLU signal for the DMSO vehicle control at Day 3 of growth. All data points are an average of triplicate samples. […] Inhibition and IC50 data analysis was done with GraphPad Prism using a non-linear regression fit with a multiparamater, sigmoidal dose-response (variable slope) equation.
MV-411 cells expressed the FLT3 internal tandem duplication mutation, and thus were entirely dependent upon FLT3 activity for growth. […] In contrast, the Baf3 cell proliferations is driven by the cytokine IL-3 and these cells are used as a non-specific toxicity control for test compounds.

Compound | IC50 (FLT3 571-993) | IC50 (MV4-11 cells)
CC(C)Oc1ccc(NC(=O)OC2CCN(c3ncnc4sccc34)C2)cc1 (stereo not drawn) [Compound 4, (4-Isopropoxy-phenyl)-carbamic acid 1-thieno[2,3-d]pyrimidin-4-yl-pyrrolidin-3-yl ester] | 761 nM | > 10000 nM
CC(C)c1ccc(NC(=O)OC2CCN(c3ncnc4ccsc34)CC2)cc1 [Compound 7, (4-Isopropyl-phenyl)-carbamic acid 1-thieno[3,2-d]pyrimidin-4-yl-piperidin-4-yl ester] | 140 nM | 4300 nM
CC(C)c1ccc(NC(=O)OC2CCN(c3ncnc4sccc34)CC2)cc1 [Compound 1, (4-Isopropyl-phenyl)-carbamic acid 1-thieno[2,3-d]pyrimidin-4-yl-piperidin-4-yl ester] | 102 nM | 7200 nM
O=C(Nc1ccc(OC2CCC2)nc1)NC1CCN(c2ncnc3ccsc23)CC1 [Compound 20, 1-(6-Cyclobutoxy-pyridin-3-yl)-3-(1-thieno [3,2-d]pyrimidin-4-yl-piperidin-4-yl)-urea] | – | 1500 nM
CC(C)Oc1ccc(NC(=O)OC2CCN(c3ncnc4sccc34)CC2)cc1 [Compound 2, (4-Isopropoxy-phenyl)-carbamic acid 1-thieno[2,3-d]pyrimidin-4-yl-piperidin-4-yl ester] | 2090 nM | > 10000 nM
CC(C)Oc1ccc(NC(=O)OC2CCN(c3ncnc4ccsc34)CC2)cc1 [Compound 8, (4-Isopropoxy-phenyl)-carbamic acid 1-thieno[3,2-d]pyrimidin-4-yl-piperidin-4-yl ester] | 3030 nM | 3600 nM
CC(C)c1ccc(NC(=O)OC2CCN(c3ncnc4sccc34)C2)cc1 (stereo not drawn) [Compound 3, (4-Isopropyl-phenyl)-carbamic acid 1-thieno[2,3-d]pyrimidin-4-yl-pyrrolidin-3-yl ester] | 227 nM | 2400 nM
CC(C)Oc1ccc(NC(=O)OC2CCN(c3ncnc4ccsc34)C2)cc1 (stereo not drawn) [Compound 6, (4-Isopropoxy-phenyl)-carbamic acid 1-thieno[3,2-d]pyrimidin-4-yl-pyrrolidin-3-yl ester] | 208 nM | 6500 nM

Continued, values first:

IC50 (FLT3 571-993) | IC50 (MV4-11 cells) | Compound
365 nM | 3600 nM | CC(C)Oc1ccc(NC(=O)NC2CCN(c3ncnc4sccc34)C2)cc1 (stereo not drawn) [Compound 10, 1-(4-Isopropoxy-phenyl)-3-(1-thieno[2,3-d]pyrimidin-4-yl-pyrrolidin-3-yl)-urea]
– | > 5000 nM | O=C(Nc1ccc(N2CCOCC2)cc1)NC1CCN(c2ncnc3ccsc23)CC1 [Compound 24, 1-(4-Morpholin-4-yl-phenyl)-3-(1-thieno[3,2-d]pyrimidin-4-yl-piperidin-4-yl)-urea]
– | > 5000 nM | O=C(Nc1ccc(N2CCOCC2)cc1)NC1CCN(c2ncnc3ccsc23)C1 (stereo not drawn) [Compound 14, 1-(4-Morpholin-4-yl-phenyl)-3-(1-thieno [3,2-d]pyrimidin-4-yl-pyrrolidin-3-yl)-urea]
– | 2100 nM | O=C(Nc1ccc(N2CCOCC2)cc1)OC1CCN(c2ncnc3ccsc23)C1 (stereo not drawn) [Compound 28, (4-Morpholin-4-yl-phenyl)-carbamic acid 1-thieno[3,2-d]pyrimidin-4-yl-pyrrolidin-3-yl ester]
– | 1900 nM | O=C(Nc1ccc(Br)cc1)NC1CCN(c2ncnc3ccsc23)C1 (stereo not drawn) [Compound 17, 1-(4-Bromo-phenyl)-3-(1-thieno [3,2-d]pyrimidin-4-yl-pyrrolidin-3-yl)-urea]
296 nM | 2500 nM | CC(C)Oc1ccc(NC(=O)NC2CCN(c3ncnc4ccsc34)C2)cc1 (stereo not drawn) [Compound 12, 1-(4-Isopropoxy-phenyl)-3-(1-thieno[3,2-d]pyrimidin-4-yl-pyrrolidin-3-yl)-urea]
– | 3900 nM | O=C(Nc1ccc(N2CCCC2)cc1)NC1CCN(c2ncnc3ccsc23)CC1 [Compound 23, 1-(4-Pyrrolidin-1-yl-phenyl)-3-(1-thieno [3,2-d]pyrimidin-4-yl-piperidin-4-yl)-urea]
– | 3800 nM | O=C(Nc1ccc(Oc2ccccc2)cc1)NC1CCN(c2ncnc3ccsc23)CC1 [Compound 22, 1-(4-Phenoxy-phenyl)-3-(1-thieno [3,2-d]pyrimidin-4-yl-piperidin-4-yl)-urea]
– | 1400 nM | O=C(Nc1ccc(C2CCCCC2)cc1)NC1CCN(c2ncnc3ccsc23)CC1 [Compound 21, 1-(4-Cyclohexyl-phenyl)-3-(1-thieno [3,2-d]pyrimidin-4-yl-piperidin-4-yl)-urea]
– | 5200 nM | O=C(Nc1ccc(C2CCCCC2)cc1)NC1CCN(c2ncnc3ccsc23)C1 (stereo not drawn) [Compound 16, 1-(4-Cyclohexyl-phenyl)-3-(1-thieno [3,2-d]pyrimidin-4-yl-pyrrolidin-3-yl)-urea]
